Counter-ions that a name gives are not always drawn. Where only a bound is given, the exact number is not on record here.

This test has as its target T1, JAK3 (Homo sapiens, UniProt P52333).
T1 construct: The Ramos B-cell line was acquired from ATCC (ATCC Catalog No. CRL-1596); host or cells: Ramos B-cell line (human)
T1 sequence (P52333 1-1124): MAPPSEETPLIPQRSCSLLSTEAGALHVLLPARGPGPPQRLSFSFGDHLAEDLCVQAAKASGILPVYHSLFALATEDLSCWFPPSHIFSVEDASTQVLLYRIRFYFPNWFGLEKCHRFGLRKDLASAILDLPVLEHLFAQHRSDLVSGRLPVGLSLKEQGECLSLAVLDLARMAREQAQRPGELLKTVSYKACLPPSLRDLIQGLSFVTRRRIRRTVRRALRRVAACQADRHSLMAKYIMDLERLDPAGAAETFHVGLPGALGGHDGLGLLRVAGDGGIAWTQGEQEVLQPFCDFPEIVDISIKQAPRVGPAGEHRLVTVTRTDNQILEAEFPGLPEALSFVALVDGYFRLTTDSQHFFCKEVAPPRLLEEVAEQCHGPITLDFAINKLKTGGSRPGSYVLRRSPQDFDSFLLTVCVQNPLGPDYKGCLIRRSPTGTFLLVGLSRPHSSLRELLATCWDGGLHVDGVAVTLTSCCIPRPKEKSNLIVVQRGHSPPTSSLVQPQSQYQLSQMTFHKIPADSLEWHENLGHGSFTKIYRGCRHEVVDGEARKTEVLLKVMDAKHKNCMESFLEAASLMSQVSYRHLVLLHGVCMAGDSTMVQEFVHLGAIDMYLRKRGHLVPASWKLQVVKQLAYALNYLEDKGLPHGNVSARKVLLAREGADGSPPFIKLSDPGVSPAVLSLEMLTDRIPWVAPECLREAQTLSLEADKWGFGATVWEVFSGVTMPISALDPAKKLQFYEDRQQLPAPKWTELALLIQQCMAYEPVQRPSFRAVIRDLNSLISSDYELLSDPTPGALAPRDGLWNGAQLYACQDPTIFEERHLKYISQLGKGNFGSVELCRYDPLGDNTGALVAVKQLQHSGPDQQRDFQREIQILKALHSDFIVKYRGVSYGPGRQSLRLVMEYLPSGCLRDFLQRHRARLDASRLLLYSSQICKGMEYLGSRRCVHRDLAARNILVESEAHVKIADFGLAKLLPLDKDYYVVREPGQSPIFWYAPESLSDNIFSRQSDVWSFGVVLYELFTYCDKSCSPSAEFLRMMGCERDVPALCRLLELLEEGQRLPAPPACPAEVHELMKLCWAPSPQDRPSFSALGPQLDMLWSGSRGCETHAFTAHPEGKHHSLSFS
Description: Assay for CD23 expression on Ramos B-cells stimulated by IL-4 (Table IV: ability to inhibit JAK3 activity). The class given is cell-based. The note with it: tested under conditions described in Example 3 (so in the source). An outline of the steps: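 IL-4-induced CD23 surface expression on human Ramos B cells, detected by flow cytometry after 20–24 h stimulation (IL-4 final 50 units/mL). Compound or DMSO added 1 h beforehand at 37 °C; cells kept in RPMI with 5% serum.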
`COc1ccc(Nc2ncc(F)c(Nc3ccc4oc(=O)[nH]c4c3)n2)cc1C(F)(F)F` [Compound I-212, 5-fluoro-N2-(4-methoxy-3-trifluoromethyl)phenyl-N4-(2-oxo-2,3-dihydro-1,3-benzoxazol-5-yl)-2,4-pyrimidinediamine]: the IC50 is < 0.5 µM.
As for `COc1ccc(Nc2ncc(F)c(Nc3ccc4oc(=O)[nH]c4c3)n2)cc1OCC(=O)NC1CC1` [Compound I-213, N2-[3-(cyclopropylaminocarbonylmethoxy)-4-methoxy]phenyl-5-fluoro-N4-(2-oxo-2,3-dihydro-1,3-benzoxazol-5-yl)-2,4-pyrimidinediamine], the figure is < 0.5 µM; as for `Cc1cc(Nc2ncc(F)c(Nc3ccc4oc(=O)[nH]c4c3)n2)cc(C)c1C` [Compound I-214, 5-fluoro-N2-(3,4,5-trimethyl)phenyl-N4-(2-oxo-2,3-dihydro-1,3-benzoxazol-5-yl)-2,4-pyrimidinediamine], > 10 µM.
As to `Cc1cc(Nc2ncc(F)c(Nc3ccc4oc(=O)[nH]c4c3)n2)cc(C)c1F` [Compound I-215, N2-(3,5-dimethyl-4-fluoro)phenyl-5-fluoro-N4-(2-oxo-2,3-dihydro-1,3-benzoxazol-5-yl)-2,4-pyrimidinediamine], the IC50 was < 0.5 µM.
In the case of `O=c1[nH]c2cc(Nc3nc(Nc4ccc5c(c4)CCC(N4CCCC4)CC5)ncc3F)ccc2o1` (stereo not shown) [II-2, 5-(5-fluoro-2-(7-(pyrrolidin-1-yl)-6,7,8,9-tetrahydro-5H-benzo[7]annulen-2-ylamino)pyrimidin-4-ylamino)benzo[d]oxazol-2(3H)-one diformate salt] it was < 0.5 µM.
As for `CN1C/C=C\Cc2ccc(Nc3ncc(F)c(Nc4ccc5oc(=O)[nH]c5c4)n3)cc2C1=O` [II-4, (Z)-5-(5-fluoro-2-(2-methyl-1-oxo-1,2,3,6-tetrahydrobenzo[c]azocin-9-ylamino)pyrimidin-4-ylamino)benzo[d]oxazol-2(3H)-one formate salt], the figure is < 0.5 µM; as for `O=C1CCCCc2cc(Nc3ncc(F)c(Nc4ccc5oc(=O)[nH]c5c4)n3)ccc21` [II-5, 5-(5-fluoro-2-(5-oxo-6,7,8,9-tetrahydro-5H-benzo[7]annulen-2-ylamino)pyrimidin-4-ylamino)benzo[d]oxazol-2(3H)-one formate salt], < 0.5 µM.
As for `O=c1[nH]c2cc(Nc3nc(Nc4ccc5ccccc5c4)ncc3[N+](=O)[O-])ccc2o1` [II-6, 5-(2-(naphthalen-2-ylamino)-5-nitropyrimidin-4-ylamino)benzo[d]oxazol-2(3H)-one trifluoroacetate salt], the figure is > 10 µM.
In the case of `COC(=O)c1cnc(Nc2ccc3ccccc3c2)nc1Nc1ccc2oc(=O)[nH]c2c1` [II-7, 2-(Naphthalen-2-ylamino)-4-(2-oxo-2,3-dihydro-benzooxazol-5-ylamino)-pyrimidine-5-carboxylic acid methyl ester trifluoroacetate salt], the IC50 is > 10 µM.
In the case of `Cc1cnc(Nc2ccc3c(c2)C(=O)OC3)nc1Nc1ccc2oc(=O)[nH]c2c1` [II-8, 5-methyl-N4-(2-oxo-2,3-dihydro-1,3-benzoxazol-5-yl)-N2-(1-oxo-1,3-dihydro-isobenzofuran-6-yl)-2,4-pyrimidinediamine] it was < 0.5 µM; in that of `Cc1cnc(Nc2ccc3c(c2)COC3)nc1Nc1ccc2oc(=O)[nH]c2c1` [II-9, N2-(1,3-dihydro-isobenzofuran-5-yl)-5-methyl-N4-(2-oxo-2,3-dihydro-1,3-benzoxazol-5-yl)-2,4-pyrimidinediamine], < 0.5 µM; in that of `Cc1cnc(Nc2ccc3c(c2)COC3=O)nc1Nc1ccc2oc(=O)[nH]c2c1` [II-10, 5-methyl-N4-(2-oxo-2,3-dihydro-1,3-benzoxazol-5-yl)-N2-(1-oxo-1,3-dihydro-isobenzofuran-5-yl)-2,4-pyrimidinediamine], < 0.5 µM.
As for `Cc1cnc(Nc2ccc3c(c2)C(=O)NC3)nc1Nc1ccc2oc(=O)[nH]c2c1` [II-11, 5-methyl-N4-(2-oxo-2,3-dihydro-1,3-benzoxazol-5-yl)-N2-(1-oxo-1,3-dihydro-2H-isoindol-6-yl)-2,4-pyrimidinediamine], the figure is < 0.5 µM.

Source of the values: patent US11174251B2, “Compositions and methods for inhibition of the JAK pathway” (Rigel Pharmaceuticals, Inc., priority 2010, dated 2021).
